What all share (format): cell-based
Test [1] has as its system MDA-MB-231 cells. Description: MTT cell viability assay, MDA-MB-231 cells. Particulars: for IC50: MTT. The procedure:
(§1) Osteoblast-like UMR-106 cells (RRID CVCL_3617; ATCC CRL-1661) and triple-negative breast cancer cells, MDA-MB-231 (RRID CVCL_0062; ATCC HTB-26) were obtained from American Type Culture Collection (ATCC, VA, USA). Cells were cultured in Dulbecco’s modified Eagle’s medium (DMEM) (Sigma-Aldrich, MO, USA) containing 10% (v/v) fetal bovine serum (FBS) and 1% penicillin–streptomycin (Gibco, Texas, USA) and maintained under 5% CO2 at 37 °C, and sub-cultured according to the manufacturer’s instruction.
(§2) Cell viability was assessed using the 3-(4,5-dimethylthiazol-2-yl)-2,5-diphenyltetrazolium bromide (MTT) colorimetric assay. The assay was performed according to a previously described method. In brief, cells were seeded into a 96-well plate at a density of 1.0 × 10^4 cells/well and allowed to attach overnight. Thereafter, they were treated with ACEA, GW405833 or the combination of both for the indicated times. MTT (Invitrogen, CA, USA) solution was added to the final concentration of 0.5 mg/mL in 100 µL in serum-free DMEM and incubated at 37 °C for 4 h, then stop solution was added and thoroughly mixed. The optical density at 595 nm was measured using a microplate reader (Multiskan EX) (Thermo Fisher Scientific, MA, USA). The percentage of cell viability was calculated based on the absorbance ratio between cells treated with the compounds and control multiplied by 100 (percent cell viability normalized to control).
(§3) All results are expressed as means ± standard errors (SEM). Unless otherwise specified, statistical analysis for multiple comparisons was performed using one-way analysis of variance (ANOVA). The difference between pairs of means was analyzed by Tukey post-test. A p-value < 0.05 was considered statistically significant. Calculation of the inhibitory concentration at 50% (IC50) and all statistical analyses were performed using GraphPad Prism 9 (GraphPad Software Inc., USA).
On the technique in general: Tetrazolium assays rely on reduction of a dye to a coloured formazan, in cell work by metabolically active cells.

The subject of test [2] is UMR-106 cells. Description: UMR-106 viability (MTT) with conditioned media from agonist-pretreated MDA-MB-231 cells. As to conditions: MDA-MB-231 pretreated 48 h; CM collected after 48 h in serum-free DMEM. The procedure: To collect CM from MDA-MB-231 cells, cells were seeded into a 6-well plate at a density of 5.0 × 10^5 cells/well and grown for 24 h until reaching 80–90% confluence. In the pretreatment experiment, cells were treated with either ACEA, GW405833 or a combination of both for 48 h. After that, cells were washed with phosphate buffered saline (PBS) and incubated in serum-free DMEM. Forty-eight hours later, CM from these cells was harvested, filtered through a syringe filter (pore size of 0.2 µm; Sartorius Stedim Biotech GmbH, Göttingen, Germany) to remove cells and debris, and stored at − 80 °C for later experiments (Fig. 1a).
as §2, with “MTT (Invitrogen, CA, USA) solution was added to the final concentration of 0.5 mg/mL in 100 µL in serum-free DMEM and incubated at 37 °C for 4 h, then stop solution was added and thoroughly mixed.” left out

Test [3] relates to cellular ROS in MDA-MB-231 cells. Description: DCFDA cellular ROS detection assay. As to conditions: 30 µM ACEA, 15 µM GW405833 or combination, 6 h. The procedure:
Cellular reactive oxygen species (ROS) were monitored using the 2´,7´-dichlorofluorescin diacetate (DCFDA) Cellular ROS Detection Assay Kit (ab113851) (Abcam, Cambridge, UK) according to the manufacturer's instruction. In brief, MDA-MB-231 cells were seeded into a 96-black well plates with clear bottom at a density of 2.5 × 10^4 cells/well and grown overnight. Then, the cells were treated with ACEA, GW405833 or the combination of both for 6 h. At the end of the treatment, fluorescence signal of DCF was measured by using a multimode microplate reader (Spark 10 M) (Tecan Austria GmbH, Männedorf, Austria) with the excitation and emission wavelengths of 485 and 535 nm, respectively.

The test system of test [4] is MDA-MB-231 cells. Description: Wound healing cell migration assay. Particulars: for cell migration (wound closure): 15 µM. The procedure:
Cell migration was measured by wound healing assay modified from Lertsuwan et al.,[27]. Briefly, MDA-MB-231 cells were seeded into a 24-well plate at a density of 4.0 × 10^5 cells/well and allowed to attach overnight. Thereafter, wound was created with a sterile 200-µL pipette tip, then the cells were treated with ACEA, GW405833 or the combination of both. Series of images of the scratched wound were taken under a phase contrast inverted microscope (model AE31) (Motic, China) from 0 to 36 h. The closure of the wound representing migration ability of the cells was measured by using ImageJ software (National Institutes of Health). Cell migration was calculated as the percentage of wound closure area compared to the initial scratched area.

For test [5], the system named is p-NF-κB p65 in MDA-MB-231 cells. Put plainly: Western blot of p-NF-κB p65 expression. As to conditions: individual treatments, 48 h. The procedure: Twenty micrograms of protein samples were resolved by sodium dodecyl sulfate polyacrylamide gel electrophoresis (SDS-PAGE) (Invitrogen) gel before being transferred to nitrocellulose blotting membrane (GE Healthcare, Texas, USA).The membranes were then blocked with 5% (w/v) bovine serum albumin (BSA) (Capricorn Scientific, Hessen, Germany) for 2 h at room temperature, followed by the incubation at 4 °C overnight with primary antibodies. After washing, the membranes were incubated with the appropriate horseradish peroxidase (HRP)-conjugated secondary antibodies. Proteins on the immunoblots were visualized by enhanced chemiluminescence (ECL) (Millipore, MA, USA) and exposed to X-ray film (GE Healthcare). Protein band intensity was quantified using ImageJ software (National Institutes of Health, MD, USA). To relatively quantify the target protein expression, the intensity of target protein band was normalized to β-actin of each lane.
In general terms: A western blot detects proteins with antibodies after separation by electrophoresis.

In test [6] the test system is UMR-106 cells. Description: MTT cell viability assay, UMR-106 cells. As to conditions: for IC50: MTT; for effect of low concentrations on osteoblast growth: UMR-106 osteoblasts. The procedure: as §1, §2, §3

Entries after “also recorded” stand apart in the source; their conditions may differ.

In general, IC50 refers to the concentration at which inhibition is half-maximal.

Turning to `CCCCC/C=C\C/C=C\C/C=C\C/C=C\CCCC(=O)NCCCl` [ACEA], the “Fold differences between IC50 values of UMR-106 / MDA-MB-231” value is 1.54 fold with MDA-MB-231 cells [1] (24 h); 1.63 fold with MDA-MB-231 cells [1] (48 h); 1.16 fold with MDA-MB-231 cells [1] (72 h); 1.44 fold with MDA-MB-231 cells [1] (Average of 24, 48 and 72 h). The half-inhibitory concentration (IC50) in the test with MDA-MB-231 cells [1] (24 h) came out at 67.8 µM; with MDA-MB-231 cells [1] (48 h), 38 µM; in the test on MDA-MB-231 cells [1] (72 h), 32.8 µM; in the test with UMR-106 cells [6] (24 h), 104 µM; in the test on UMR-106 cells [6] (48 h), 62 µM; in the test with UMR-106 cells [6] (72 h), 38 µM. For the same compound, the “effect of pretreatment of MDA-MB-231 cells on CM-mediated suppression of UMR-106 cell viability” value in the test on UMR-106 cells [2] is on record as “did not alter CM-mediated osteoblast suppression”. Further, in test [3], the “cellular ROS levels compared to control group” value is “remained unchanged”. Further, the “percentage of wound closure (cell migration)” value is listed as “significantly decreased” in the test on MDA-MB-231 cells [4] (20 µM, 24 h); “significantly decreased; also recorded: significant reduction” in the test with MDA-MB-231 cells [4] (30 µM, 24 h); “significantly decreased” in the test on MDA-MB-231 cells [4] (30 µM, 36 h). For the same compound, the “level of p-NF-κB p65” value in test [5] is reported as “remained unchanged”. Moreover, in the test with UMR-106 cells [6], the “effect of low concentrations on osteoblast growth” value is “growth stimulatory effect”.
Turning to `COc1ccc2c(c1)c(CCN1CCOCC1)c(C)n2C(=O)c1cccc(Cl)c1Cl` [GW405833], the “Fold differences between IC50 values of UMR-106 / MDA-MB-231” value in the test with MDA-MB-231 cells [1] (24 h) amounted to 6.83 fold; in the test on MDA-MB-231 cells [1] (48 h), 7.18 fold; with MDA-MB-231 cells [1] (72 h), 6.27 fold; with MDA-MB-231 cells [1] (Average of 24, 48 and 72 h), 6.76 fold. Moreover, the IC50 worked out at 24.6 µM in the test on MDA-MB-231 cells [1] (24 h); 16.6 µM in the test on MDA-MB-231 cells [1] (48 h); 12.7 µM with MDA-MB-231 cells [1] (72 h); 168 µM with UMR-106 cells [6] (24 h); 119 µM in the test with UMR-106 cells [6] (48 h); 79.9 µM in the test with UMR-106 cells [6] (72 h). Besides, the “effect of pretreatment of MDA-MB-231 cells on CM-mediated suppression of UMR-106 cell viability” value in the test with UMR-106 cells [2] is “significant recovery”. For the same compound, the “cellular ROS levels compared to control group” value in test [3] is reported as “remained unchanged”. Besides, the “cell migration (wound closure)” value with MDA-MB-231 cells [4] (24 h) is on record as “significant reduction”; in the test on MDA-MB-231 cells [4] (36 h), “significant cell migration suppression”. In test [5], the “level of p-NF-κB p65” value is listed as “remained unchanged”. Besides, the “effect of low concentrations on osteoblast growth” value with UMR-106 cells [6] is “growth stimulatory effect”.

Values taken from article PMC9072415, “Activation of cannabinoid receptors in breast cancer cells improves osteoblast viability in cancer-bone interaction model while reducing breast cancer cell survival and migration” (Scientific Reports, 2022).
